Measurements from patent publication US20260210939A1, “MODIFIED OLFACTORY RECEPTORS” (GIVAUDAN SA, priority 2022, published 2026).
“Also recorded” adds a separate entry of the source. One block for each molecule: values may come before it.

Columns and labels:
[1] = test system: library of all human class I OR; test: Screening of the library of all class I OR (n=77, C-terminal domain SEQ ID NO: 741) with carboxylic acids, luciferase induction; format: cell-based; details: full library of class I OR
Method: All human class I OR and all key genetic variants of these OR were synthesized with a sequence coding for the identical C-terminal domain […] (SEQ ID NO: 741) in the vector pcDNA3.1(+) to generate a library of all class I OR with an improved C-terminal domain.
Parallel transfection experiments were conducted with all these plasmids (n=77, SEQ ID NO: 760, OR51F1 was excluded due to poor plasmid yield) and cells expressing the different OR were stimulated with one given ligand at a time. In total 10 different carboxylic acids ligands were tested on the full library of class I receptors.

[2] = target: T1, OR52E8 (Homo sapiens, UniProt Q6IFG1); format: cell-based
T1 construct: Improved functional expression of modified OR-genes containing the truncated, optimized C-terminus; expressed in transfected cells; host or cells: HEK293T stably expressing human RTP1S(V227I) and RTP2(L220R)
T1 sequence (Q6IFG1 with tags, fused parts or gaps): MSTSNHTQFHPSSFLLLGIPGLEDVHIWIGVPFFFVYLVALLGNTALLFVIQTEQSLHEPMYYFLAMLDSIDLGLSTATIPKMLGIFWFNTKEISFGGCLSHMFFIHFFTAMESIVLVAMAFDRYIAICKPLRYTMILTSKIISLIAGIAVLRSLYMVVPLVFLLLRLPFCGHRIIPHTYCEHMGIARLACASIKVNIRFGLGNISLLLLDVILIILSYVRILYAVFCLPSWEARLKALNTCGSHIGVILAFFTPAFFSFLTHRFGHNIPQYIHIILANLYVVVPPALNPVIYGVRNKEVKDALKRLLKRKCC
From the text: Activation of OR52E8 by odorant acids present in human sweat (Natsch et al. A specific bacterial aminoacylase cleaves odorant precursors secreted in the human axilla. The Journal of biological chemistry 2003; 278(8):5718-5727) was investigated with different variants of the parent receptor sequence. The wild-type variant was not activated by the acids. […] However, using the optimized sequence from Examples 1-5 led to a strong signal upon addition of 3-methyl-3-hydroxy hexanoic acid.
These two improvements were further combined and the combination was tested on OR52A5 and two further class I receptors. […] In the case of OR52A4, 4-ethyloctanoic acid, which is detected at low concentrations by the human nose, is detected with a high luciferase response already at 0.19 μM by the receptor with the C-terminal modification showing very sensitive detection of this carboxylic acid by the modified class I receptor.

[3] = target: T2, OR10J5 (Homo sapiens, UniProt Q8NHC4); format: cell-based; details: for EC20%: OR10J5 with SEQ ID NO: 86, relative to positive control 100 μM Mahonial
T2 construct: Improved functional expression of modified OR-genes containing the truncated, optimized C-terminus; expressed in transfected cells; host or cells: HEK293T stably expressing human RTP1S(V227I) and RTP2(L220R)
T2 sequence (Q8NHC4 with tags, fused parts or gaps): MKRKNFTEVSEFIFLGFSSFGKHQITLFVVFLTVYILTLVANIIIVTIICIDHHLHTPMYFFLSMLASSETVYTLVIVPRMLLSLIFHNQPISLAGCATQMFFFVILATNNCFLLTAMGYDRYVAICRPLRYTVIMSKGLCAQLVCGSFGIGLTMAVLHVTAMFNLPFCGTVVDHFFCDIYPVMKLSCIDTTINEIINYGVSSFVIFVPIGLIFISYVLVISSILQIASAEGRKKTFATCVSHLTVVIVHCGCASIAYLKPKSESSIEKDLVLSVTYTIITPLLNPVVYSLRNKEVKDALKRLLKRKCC
Method: Activation of OR10J5 with the C-terminal domain of SEQ ID NO: 86 by (S,E)-10-hydroxy-4,8-dimethyldec-4-enal or (R,E)-10-hydroxy-4,8-dimethyldec-4-enal was measured in a dose-response analysis.
Potency of the two tested OR10J5 ligands is expressed as the EC20% value, which is the concentration that leads to a 20% increase of the luciferase activity relative to the positive control (100 μM, Mahonial; (4E)-9-hydroxy-5,9-dimethyl-4-Decenal). […] Because of the difference in EC20%, a much lower concentration of the (S,E)-isomer is needed to activate the receptor compared to the concentration needed of the (R,E)-isomer. […] This example further illustrates the usefulness of the improved assay to determine the most odor-active isomers.

[4] = target: T3, OR4S2 (Homo sapiens, UniProt Q8NH73, A290K); test: cell-based; format: cell-based
T3 construct: Improved functional expression of modified OR-genes containing the truncated, optimized C-terminus; expressed in transfected cells; host or cells: HEK293T stably expressing human RTP1S(V227I) and RTP2(L220R)
T3 sequence (Q8NH73 with tags, fused parts or gaps A290K): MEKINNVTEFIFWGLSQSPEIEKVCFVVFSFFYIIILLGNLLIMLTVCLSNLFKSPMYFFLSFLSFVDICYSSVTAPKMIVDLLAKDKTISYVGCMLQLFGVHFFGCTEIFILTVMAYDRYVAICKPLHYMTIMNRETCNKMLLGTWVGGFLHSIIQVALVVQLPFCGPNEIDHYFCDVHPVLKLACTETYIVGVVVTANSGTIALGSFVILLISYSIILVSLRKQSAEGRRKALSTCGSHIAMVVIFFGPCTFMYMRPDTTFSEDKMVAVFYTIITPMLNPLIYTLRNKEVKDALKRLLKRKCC

[5] = target: T4, OR1C1 (Homo sapiens, UniProt Q15619); format: cell-based; details: changed C-term. vs wild-type
T4 construct: Improved functional expression of modified OR-genes containing the truncated, optimized C-terminus; expressed in transfected cells; host or cells: HEK293T stably expressing human RTP1S(V227I) and RTP2(L220R)
T4 sequence (Q15619 with tags, fused parts or gaps): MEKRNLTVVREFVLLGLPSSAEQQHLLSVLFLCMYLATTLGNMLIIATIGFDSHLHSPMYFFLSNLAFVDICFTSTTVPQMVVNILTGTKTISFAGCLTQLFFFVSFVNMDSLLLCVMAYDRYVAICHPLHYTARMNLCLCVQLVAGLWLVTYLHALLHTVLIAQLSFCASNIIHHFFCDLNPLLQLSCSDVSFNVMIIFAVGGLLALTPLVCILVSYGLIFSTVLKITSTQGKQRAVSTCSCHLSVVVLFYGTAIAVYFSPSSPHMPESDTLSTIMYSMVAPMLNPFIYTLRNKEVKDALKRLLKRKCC

[6] = target: T2, OR10J5; format: cell-based; details: changed C-term. vs wild-type
[7] = target: T5, OR5A2 (Homo sapiens, UniProt Q8NGI9); test: CRE-luciferase assay, HEK293T cells expressing OR5A2 (wild-type / modified C-terminus); format: cell-based
T5 construct: Improved functional expression of modified OR-genes containing the truncated, optimized C-terminus; expressed in transfected cells; host or cells: HEK293T with stably integrated human RTP1S(V227I) and RTP2(L220R)
T5 sequence (Q8NGI9 with tags, fused parts or gaps): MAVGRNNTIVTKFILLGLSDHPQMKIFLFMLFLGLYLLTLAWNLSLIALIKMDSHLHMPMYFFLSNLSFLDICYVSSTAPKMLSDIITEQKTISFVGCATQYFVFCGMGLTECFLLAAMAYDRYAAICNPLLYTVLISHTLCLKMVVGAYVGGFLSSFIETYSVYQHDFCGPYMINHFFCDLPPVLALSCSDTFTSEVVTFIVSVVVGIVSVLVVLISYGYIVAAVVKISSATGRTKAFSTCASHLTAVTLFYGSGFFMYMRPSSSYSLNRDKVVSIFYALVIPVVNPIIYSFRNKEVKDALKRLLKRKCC

[8] = test system: library of all human class II OR; test: Screening of the library of all class II OR (n=408, C-terminal domain SEQ ID NO: 221) with single odorants, luciferase induction; format: cell-based
Method: All human class II OR and all key genetic variants of these OR were synthesized with a sequence coding for an identical modified C-terminal domain […] (SEQ ID NO: 221) in the vector pcDNA3.1(+) to generate a library of all class II OR with an improved C-terminal domain.
Parallel transfection experiments were conducted with all these plasmids (n=408) and cells expressing the different OR were stimulated with one given ligand at a time, tested at the maximal, clearly non-cytotoxic concentration. In total 26 different ligands were tested on the full library of class II receptors.

[9] = target: T6, OR5AN1 (Homo sapiens, UniProt Q8NGI8); test: Luciferase assay with chimeric OR5AN1 carrying the C-terminal sequence of OR1N2; format: cell-based
T6 construct: Lucy part is a cleavable signal peptide) (N); expressed in transfected cells
T6 sequence (Q8NGI8 with tags, fused parts or gaps limits assumed): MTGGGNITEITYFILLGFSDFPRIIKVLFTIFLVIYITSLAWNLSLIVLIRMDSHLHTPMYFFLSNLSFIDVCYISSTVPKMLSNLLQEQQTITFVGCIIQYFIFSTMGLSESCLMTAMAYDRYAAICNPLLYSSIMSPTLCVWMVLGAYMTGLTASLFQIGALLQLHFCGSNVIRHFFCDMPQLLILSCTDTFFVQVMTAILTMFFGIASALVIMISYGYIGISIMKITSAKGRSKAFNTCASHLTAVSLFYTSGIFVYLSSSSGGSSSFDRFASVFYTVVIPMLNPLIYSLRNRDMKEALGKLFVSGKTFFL
From the text: Similarly, the C-terminal sequence of OR5AN1 was replaced with the C-terminal sequence of the ambrettolide receptor OR1N2.

[10] = test system: human class II OR identified in the library screening; test: Confirmatory dose-response analysis of library-hit OR with cognate ligand, wild-type vs C-terminal domain SEQ ID NO: 221 (Table 17);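 further: Wild-type receptor sequences expressed from the pcDNA3.1(+) vector and compared with the C-terminally modified receptors in dose-response tests using each receptor's cognate ligand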
Method: Selected ligand—OR pairs were then tested in a confirmatory test with a dose response analysis.
For selected receptors, the wild-type sequence was synthesized and cloned into pcDNA3.1 (+). Dose-response analysis with the cognate ligand was then performed for both the wild-type and the modified sequence.

[11] = test system: library of human class II OR; test: Screening of the class II OR library with a mixture of odorants of one odor description; format: cell-based; details: OR with C-terminal domain SEQ ID NO: 221
From the text: Single odorants may trigger activation of multiple OR as shown by the case of Ambrofix in example 18, which activates the specific receptors OR7E24 and OR7A17. On the other hand, multiple odorants may be perceived as and described by certain common odor descriptors due to their common activation of a given set of OR. To trigger a specific odor sensation, thus a specific set of OR may need to be activated. This specific OR set can be identified by mixing several odorants with a given odor description. The mixture is then screened on the full library of OR. The identified set of OR can then be further used to screen for that particular odor description. For example, to identify a typical set of OR for the odor description of “fruity esters”, a mixture of the following compounds was made: Pentanoic acid, 2-methyl ethyl ester; Butanoic acid, 3-methyl-, ethyl ester; Acetic acid, phenoxy-, 2-propenyl ester; Hexanoic acid, ethyl ester; Acetic acid, (3-methylbutoxy)-, 2-propenyl ester; Acetic acid, (cyclohexyloxy)-, 2-propenyl ester; Butanoic acid, 2-methyl-, (3Z/E)-3-hexenyl ester; Cyclohexanecarboxylic acid, ethyl ester and Oxiranecarboxylic acid, 3-phenyl, ethyl ester. This mixture was screened against the full library of OR as described in example 18. […]

- Activated OR and OR variants [1]: No activation observed
Molecule: CCC=C(C)C(=O)O [2-Methyl-2-pentenoic acid]

Molecule: CCCC(C)=CC(=O)O [3-Methyl-2-hexenoic acid]
- Activated OR and OR variants [1]: strong induction of the OR51B2(C120R, L134F, C209S) variant but not of the wild-type variant of OR51B2

- Comments on efficacy [2]: No induction
- Fold-improvement potency ([2]; changed C-term. vs wild-type): >>5
- Fold-improvement threshold ([2]; changed C-term. vs wild-type): >>5
Molecule: CCCC(C)(O)CC(=O)O (stereo not drawn) [3-Methyl-3-Hydroxy-Hexanoic acid, 3-Methyl-3-hydroxyhexanoic acid]

- Activated OR and OR variants [1]: No activation observed
Molecule: CC(C)CC(=O)O [3-Methylbutanoic acid]

- EC20% [3]: 24.4 µM
Molecule: C/C(=C\CC[C@@H](C)CCO)CCC=O [(R,E)-10-hydroxy-4,8-dimethyldec-4-enal]

- EC20% [3]: 10.1 µM
Molecule: C/C(=C\CC[C@H](C)CCO)CCC=O [(S,E)-10-hydroxy-4,8-dimethyldec-4-enal]

- Comments on efficacy [4]: 2-fold lower
- Fold-improvement potency ([4]; changed C-term. vs wild-type): 1.3
- Fold-improvement threshold ([4]; changed C-term. vs wild-type): 2.4
- EC50 ([4]; wild-type): 137 µM
Molecule: c1ccc2scnc2c1 [Benzothiazole]

- Fold-improvement potency [5]: 1.9
- Fold-improvement threshold [5]: 2.1
Molecule: C=CC(C)(O)CCC=C(C)C (stereo not drawn) [Linalool]

- Fold-improvement potency [6]: 2.3
Molecule: C/C(=C\CCC=O)CCCC(C)(C)O [Mahonial, (4E)-9-hydroxy-5,9-dimethyl-4-Decenal]

- concentration at which induction starts ([7]; OR5A2 with modified C-terminus): 0.03 µM
- concentration at which activation occurs ([7]; modified OR5A2, SEQ ID NO: 86): 1 µM
- functional response of chimeric OR5AN1 [9]: not showing any functional response
Molecule: C[C@@H]1CCCCCCCCCCCCC(=O)C1 [Muscone, reference compound]
- Activated OR and OR variants ([8]; ligand at maximal non-cytotoxic concentration, full class II library): OR5AN1, OR5A2

Molecule: CC(=O)c1c(C)c([N+](=O)[O-])c(C(C)(C)C)c([N+](=O)[O-])c1C [Musk ketone]
- functional response of chimeric OR5AN1 [9]: not showing any functional response

- Comments on efficacy [3]: Only 1.8-fold
- Fold-improvement potency [6]: >>6
- Fold-improvement threshold [6]: >>6
Molecule: Cc1cc(CC(C)C)ccc1CCC=O [Nympheal, 3-(4-isobutyl-2-methylphenyl)propanal]

Molecule: C[C@H]1CC[C@@]2(O)C(C)(C)[C@@H]3CC[C@@]2(C)[C@H]1C3 [Patchoulol]
- induction in the library screening ([8]; 50 μM Patchoulol): strong induction of OR14J1; also recorded: weak induction of OR11A1 and OR7A17
- Detection threshold; concentration for 2-fold induction, changed C-term. ([10]; OR14J1, modified C-terminus SEQ ID NO: 221 (SEQ ID NO: 738)): 0.45 µM
- Fold improvement efficacy ([10]; OR14J1, modified C-terminus SEQ ID NO: 221 vs wild-type, maximal induction): 33.4 fold
- EC50 ([10]; read-out: Potency, EC50 changed C-term, OR14J1, modified C-terminus SEQ ID NO: 221 (SEQ ID NO: 738)): 2200 nM
- activity of the wild-type OR ([10]; wild-type sequence, cognate ligand): inactive

- Fold luciferase induction (20 ppm fruity ester mix) [11]: 8.9
B1: OR2L5: class II OR with C-terminal domain SEQ ID NO: 221 (protein, UniProt Q8NG80 1-312, looked up)
Olfactory receptor 2L5: MENYNQTSTDFILLGLFPPSKIGLFLFILFVLIFLMALIGNLSMILLIFLDTHLHTPMYFLLSQLSLIDLNYISTIVPKMASDFLYGNKSISFIGCGIQSFFFMTFAGAEALLLTSMAYDRYVAICFPLHYPIRMSKRMYVLMITGSWMIGSINSCAHTVYAFRIPYCKSRAINHFFCDVPAMLTLACTDTWVYEYTVFLSSTIFLVFPFTGIACSYGWVLLAVYRMHSAEGRKKAYSTCSTHLTVVTFYYAPFAYTYLCPRSLRSLTEDKVLAVFYTILTPMLNPIIYSLRNKEVMGALTRVIQNIFSVKM

- Fold luciferase induction (20 ppm fruity ester mix) [11]: 7.2
B2: OR11G2: class II OR with C-terminal domain SEQ ID NO: 221 (protein, UniProt Q8NGC1 1-345, looked up)
Olfactory receptor 11G2: MHFLSQNDLNINLIPHLCLHRHSVIAGAFTIHRHMKIFNSPSNSSTFTGFILLGFPCPREGQILLFVLFTVVYLLTLMGNGSIICAVHWDQRLHAPMYILLANFSFLEICYVTSTVPSMLANFLSDTKIISFSGCFLQFYFFFSLGSTECFFLAVMAFDRYLAICRPLRYPTIMTRRLCTNLVVNCWVLGFIWFLIPIVNISQMSFCGSRIIDHFLCDPAPLLTLTCKKGPVIELVFSVLSPLPVFMLFLFIVGSYALVVRAVLRVPSAAGRRKAFSTCGSHLAVVSLFYGSVLVMYGSPPSKNEAGKQKTVTLFYSVVTPLLNPVIYSLRNKDMRKALKKFWGT
